The molecules below were run on antibodies raised with the product of Example 1 (assay: Radioimmune assay: cross-reactivity of other barbituric acids (competitive inhibition of tritiated phenobarbital binding to antibody)). Settings: at 50% inhibition, 4° C, 2 hours.

| Compound | Percent Cross-Reactivity [%] |
| --- | --- |
| CCC1(CCC(C)C)C(=O)NC(=O)NC1=O [Amobarbital] | 0.6 |
| CCCC(C)C1(CC)C(=O)NC(=S)NC1=O (stereo not shown) [Thiopental] | 0.2 |
| CCCC(C)C1(CC)C(=O)NC(=O)NC1=O (stereo not shown) [Pentobarbital] | 2.2 |
| C=CCC1(C(C)CCC)C(=O)NC(=O)NC1=O (stereo not shown) [Secobarbital] | 1.8 |
